This passage reports percent of control binding results from paper PMC7026418, “The kinase polypharmacology landscape of clinical PARP inhibitors” (Scientific Reports, 2020).

Where two headings read alike, the source gives them in different places.

Holding throughout (experiment): biochemical
What all share (set-up): DiscoveRx KINOMEscan active site-directed competition binding; percent of control kinase bound to immobilised ligand

The target in assay [1] is CSK (Homo sapiens, UniProt P41240).
Sequence of CSK (P41240 whole entry): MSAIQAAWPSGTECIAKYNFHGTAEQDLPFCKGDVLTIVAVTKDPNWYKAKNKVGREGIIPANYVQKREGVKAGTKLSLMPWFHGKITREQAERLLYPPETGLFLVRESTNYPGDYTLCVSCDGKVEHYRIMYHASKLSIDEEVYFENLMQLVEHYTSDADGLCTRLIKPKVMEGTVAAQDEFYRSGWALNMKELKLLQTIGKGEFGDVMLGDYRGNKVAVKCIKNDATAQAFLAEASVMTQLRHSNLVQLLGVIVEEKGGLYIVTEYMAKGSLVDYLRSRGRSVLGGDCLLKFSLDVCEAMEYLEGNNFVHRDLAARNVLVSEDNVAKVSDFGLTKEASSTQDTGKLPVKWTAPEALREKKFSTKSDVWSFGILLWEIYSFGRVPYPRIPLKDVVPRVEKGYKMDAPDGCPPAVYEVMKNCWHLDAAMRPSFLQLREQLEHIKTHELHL
Assay [2] concerns the target ERBB3 (Homo sapiens, UniProt P21860).
Assay [3] addresses T1, MAP4K2 (Homo sapiens, UniProt Q12851).
T1 sequence (Q12851 1-820): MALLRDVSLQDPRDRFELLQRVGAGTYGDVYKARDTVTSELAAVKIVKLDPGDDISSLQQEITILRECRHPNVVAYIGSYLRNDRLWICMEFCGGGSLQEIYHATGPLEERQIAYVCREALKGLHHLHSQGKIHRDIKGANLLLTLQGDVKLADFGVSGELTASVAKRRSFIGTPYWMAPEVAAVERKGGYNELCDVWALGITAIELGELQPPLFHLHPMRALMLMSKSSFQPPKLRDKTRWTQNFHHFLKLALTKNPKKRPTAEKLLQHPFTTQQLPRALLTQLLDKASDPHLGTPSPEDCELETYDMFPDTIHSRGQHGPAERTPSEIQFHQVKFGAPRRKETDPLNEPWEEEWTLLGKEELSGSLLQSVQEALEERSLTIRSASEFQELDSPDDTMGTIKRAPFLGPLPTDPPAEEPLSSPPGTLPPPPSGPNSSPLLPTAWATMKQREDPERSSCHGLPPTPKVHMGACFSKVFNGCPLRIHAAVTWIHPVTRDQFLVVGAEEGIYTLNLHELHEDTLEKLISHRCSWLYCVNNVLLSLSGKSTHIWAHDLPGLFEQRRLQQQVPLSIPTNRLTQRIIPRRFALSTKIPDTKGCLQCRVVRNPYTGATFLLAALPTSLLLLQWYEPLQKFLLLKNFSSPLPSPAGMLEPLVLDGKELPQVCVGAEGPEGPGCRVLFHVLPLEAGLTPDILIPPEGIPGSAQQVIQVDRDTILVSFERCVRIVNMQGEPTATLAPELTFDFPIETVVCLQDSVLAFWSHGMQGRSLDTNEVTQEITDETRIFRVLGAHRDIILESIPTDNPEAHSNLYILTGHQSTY

Assay [4] concerns the target T2, NEK9 (Homo sapiens, UniProt Q8TD19).
T2 sequence (Q8TD19 1-979): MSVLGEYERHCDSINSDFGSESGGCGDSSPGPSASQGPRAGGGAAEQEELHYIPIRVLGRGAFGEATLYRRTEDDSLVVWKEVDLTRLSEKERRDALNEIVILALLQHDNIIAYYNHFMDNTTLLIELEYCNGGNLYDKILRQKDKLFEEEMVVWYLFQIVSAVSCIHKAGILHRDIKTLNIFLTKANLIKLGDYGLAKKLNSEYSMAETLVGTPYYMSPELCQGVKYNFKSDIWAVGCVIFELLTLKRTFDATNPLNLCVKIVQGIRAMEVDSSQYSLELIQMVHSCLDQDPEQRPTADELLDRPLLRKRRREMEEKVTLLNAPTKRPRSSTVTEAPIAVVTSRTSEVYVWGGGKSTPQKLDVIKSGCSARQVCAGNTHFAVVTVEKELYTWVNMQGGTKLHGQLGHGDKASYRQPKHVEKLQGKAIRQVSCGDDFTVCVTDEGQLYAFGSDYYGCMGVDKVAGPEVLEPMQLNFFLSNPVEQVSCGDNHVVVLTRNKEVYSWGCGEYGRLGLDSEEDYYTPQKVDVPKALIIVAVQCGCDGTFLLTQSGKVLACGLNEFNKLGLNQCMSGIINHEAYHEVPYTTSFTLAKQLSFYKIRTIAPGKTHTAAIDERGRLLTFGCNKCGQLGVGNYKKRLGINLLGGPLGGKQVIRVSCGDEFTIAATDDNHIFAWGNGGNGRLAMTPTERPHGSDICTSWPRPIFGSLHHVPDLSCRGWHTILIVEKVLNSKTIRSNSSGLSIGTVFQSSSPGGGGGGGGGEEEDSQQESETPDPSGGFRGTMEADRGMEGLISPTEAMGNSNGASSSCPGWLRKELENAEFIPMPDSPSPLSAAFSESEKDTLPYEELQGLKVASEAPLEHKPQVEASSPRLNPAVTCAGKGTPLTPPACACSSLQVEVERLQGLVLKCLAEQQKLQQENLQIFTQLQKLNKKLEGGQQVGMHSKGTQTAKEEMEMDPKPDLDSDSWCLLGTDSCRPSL

Assay [5] has as its target PIK3CG (Homo sapiens, UniProt P48736).
Assay [6] addresses T3, RSK1(Kin.Dom.1-N-terminal) (Homo sapiens, UniProt Q15418).
T3 construct: gene RPS6KA1; Kin.Dom.1-N-terminal

Assay [7] deals with STK35 (Homo sapiens, UniProt Q8TDR2).
Sequence of STK35 (Q8TDR2 whole entry): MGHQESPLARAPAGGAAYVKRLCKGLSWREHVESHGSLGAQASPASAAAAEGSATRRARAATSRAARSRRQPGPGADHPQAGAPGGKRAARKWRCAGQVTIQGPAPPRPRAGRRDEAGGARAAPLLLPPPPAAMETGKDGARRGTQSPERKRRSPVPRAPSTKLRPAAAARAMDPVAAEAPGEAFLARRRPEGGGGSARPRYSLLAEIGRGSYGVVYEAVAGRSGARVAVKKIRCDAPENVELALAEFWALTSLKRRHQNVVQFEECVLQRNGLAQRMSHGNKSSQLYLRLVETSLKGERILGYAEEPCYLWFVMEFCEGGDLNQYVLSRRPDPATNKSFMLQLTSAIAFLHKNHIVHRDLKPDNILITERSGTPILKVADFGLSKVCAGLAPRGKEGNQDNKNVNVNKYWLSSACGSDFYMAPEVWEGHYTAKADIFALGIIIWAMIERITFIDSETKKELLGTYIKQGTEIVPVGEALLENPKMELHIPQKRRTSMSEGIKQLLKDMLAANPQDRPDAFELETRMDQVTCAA
Where [8] appears, read: read-out: Niraparib (MK-4827) / %Ctrl @ 10000nM.
[9] abbreviates: read-out: Olaparib / %Ctrl @ 10000nM.
Setting [10] is: read-out: Rucaparib / %Ctrl @ 10000nM, binding competition, % of control.
[11] abbreviates: read-out: Talazoparib (BMN 673) / %Ctrl @ 10000nM.

Sequence of PIK3CG (P48736 whole entry): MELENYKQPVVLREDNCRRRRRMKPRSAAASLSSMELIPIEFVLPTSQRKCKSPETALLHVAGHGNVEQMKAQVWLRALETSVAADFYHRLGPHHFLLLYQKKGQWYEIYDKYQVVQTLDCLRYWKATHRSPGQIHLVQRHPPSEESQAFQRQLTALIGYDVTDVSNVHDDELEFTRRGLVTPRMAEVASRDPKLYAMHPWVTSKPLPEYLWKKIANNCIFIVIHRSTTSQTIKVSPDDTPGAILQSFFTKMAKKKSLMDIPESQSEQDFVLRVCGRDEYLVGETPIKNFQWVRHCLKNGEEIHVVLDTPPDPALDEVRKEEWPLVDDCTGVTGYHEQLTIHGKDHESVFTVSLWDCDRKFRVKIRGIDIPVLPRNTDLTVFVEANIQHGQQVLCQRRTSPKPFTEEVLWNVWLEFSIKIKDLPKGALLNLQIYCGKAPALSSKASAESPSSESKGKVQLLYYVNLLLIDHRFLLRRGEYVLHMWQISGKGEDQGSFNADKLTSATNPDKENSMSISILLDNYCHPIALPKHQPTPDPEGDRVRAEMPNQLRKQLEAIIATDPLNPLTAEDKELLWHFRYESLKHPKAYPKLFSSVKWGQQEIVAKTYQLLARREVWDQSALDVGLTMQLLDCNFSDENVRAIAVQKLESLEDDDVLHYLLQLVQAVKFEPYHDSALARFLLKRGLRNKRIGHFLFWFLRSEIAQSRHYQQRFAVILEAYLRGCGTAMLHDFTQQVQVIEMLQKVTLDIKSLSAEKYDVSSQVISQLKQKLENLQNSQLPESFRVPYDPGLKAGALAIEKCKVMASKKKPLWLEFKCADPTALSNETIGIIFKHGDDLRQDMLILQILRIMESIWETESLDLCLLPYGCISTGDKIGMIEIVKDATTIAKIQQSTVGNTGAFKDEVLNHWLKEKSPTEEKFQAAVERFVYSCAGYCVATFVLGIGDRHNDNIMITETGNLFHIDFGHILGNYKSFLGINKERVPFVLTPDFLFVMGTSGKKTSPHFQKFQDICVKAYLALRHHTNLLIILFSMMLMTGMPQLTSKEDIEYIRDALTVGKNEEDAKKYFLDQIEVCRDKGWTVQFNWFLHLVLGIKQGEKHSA
T3 sequence (Q15418 whole entry): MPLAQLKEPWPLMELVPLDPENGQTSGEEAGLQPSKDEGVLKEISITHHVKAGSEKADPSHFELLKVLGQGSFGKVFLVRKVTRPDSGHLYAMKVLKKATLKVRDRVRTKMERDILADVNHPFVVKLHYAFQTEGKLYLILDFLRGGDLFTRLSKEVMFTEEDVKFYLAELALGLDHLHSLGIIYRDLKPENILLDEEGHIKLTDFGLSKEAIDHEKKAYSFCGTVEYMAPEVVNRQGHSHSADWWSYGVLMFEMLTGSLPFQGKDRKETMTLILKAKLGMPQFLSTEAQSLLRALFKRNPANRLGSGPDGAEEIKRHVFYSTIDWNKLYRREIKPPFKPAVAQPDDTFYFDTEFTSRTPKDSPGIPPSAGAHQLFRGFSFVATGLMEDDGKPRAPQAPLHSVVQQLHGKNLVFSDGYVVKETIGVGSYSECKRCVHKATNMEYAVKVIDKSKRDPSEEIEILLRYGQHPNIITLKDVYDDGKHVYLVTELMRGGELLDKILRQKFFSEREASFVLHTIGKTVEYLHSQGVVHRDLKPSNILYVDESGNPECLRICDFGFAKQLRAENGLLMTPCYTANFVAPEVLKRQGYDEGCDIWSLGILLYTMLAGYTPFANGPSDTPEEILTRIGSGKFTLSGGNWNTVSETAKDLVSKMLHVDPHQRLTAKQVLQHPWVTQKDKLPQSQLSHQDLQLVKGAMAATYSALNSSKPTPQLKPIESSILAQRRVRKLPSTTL
Sequence of ERBB3 (P21860 whole entry): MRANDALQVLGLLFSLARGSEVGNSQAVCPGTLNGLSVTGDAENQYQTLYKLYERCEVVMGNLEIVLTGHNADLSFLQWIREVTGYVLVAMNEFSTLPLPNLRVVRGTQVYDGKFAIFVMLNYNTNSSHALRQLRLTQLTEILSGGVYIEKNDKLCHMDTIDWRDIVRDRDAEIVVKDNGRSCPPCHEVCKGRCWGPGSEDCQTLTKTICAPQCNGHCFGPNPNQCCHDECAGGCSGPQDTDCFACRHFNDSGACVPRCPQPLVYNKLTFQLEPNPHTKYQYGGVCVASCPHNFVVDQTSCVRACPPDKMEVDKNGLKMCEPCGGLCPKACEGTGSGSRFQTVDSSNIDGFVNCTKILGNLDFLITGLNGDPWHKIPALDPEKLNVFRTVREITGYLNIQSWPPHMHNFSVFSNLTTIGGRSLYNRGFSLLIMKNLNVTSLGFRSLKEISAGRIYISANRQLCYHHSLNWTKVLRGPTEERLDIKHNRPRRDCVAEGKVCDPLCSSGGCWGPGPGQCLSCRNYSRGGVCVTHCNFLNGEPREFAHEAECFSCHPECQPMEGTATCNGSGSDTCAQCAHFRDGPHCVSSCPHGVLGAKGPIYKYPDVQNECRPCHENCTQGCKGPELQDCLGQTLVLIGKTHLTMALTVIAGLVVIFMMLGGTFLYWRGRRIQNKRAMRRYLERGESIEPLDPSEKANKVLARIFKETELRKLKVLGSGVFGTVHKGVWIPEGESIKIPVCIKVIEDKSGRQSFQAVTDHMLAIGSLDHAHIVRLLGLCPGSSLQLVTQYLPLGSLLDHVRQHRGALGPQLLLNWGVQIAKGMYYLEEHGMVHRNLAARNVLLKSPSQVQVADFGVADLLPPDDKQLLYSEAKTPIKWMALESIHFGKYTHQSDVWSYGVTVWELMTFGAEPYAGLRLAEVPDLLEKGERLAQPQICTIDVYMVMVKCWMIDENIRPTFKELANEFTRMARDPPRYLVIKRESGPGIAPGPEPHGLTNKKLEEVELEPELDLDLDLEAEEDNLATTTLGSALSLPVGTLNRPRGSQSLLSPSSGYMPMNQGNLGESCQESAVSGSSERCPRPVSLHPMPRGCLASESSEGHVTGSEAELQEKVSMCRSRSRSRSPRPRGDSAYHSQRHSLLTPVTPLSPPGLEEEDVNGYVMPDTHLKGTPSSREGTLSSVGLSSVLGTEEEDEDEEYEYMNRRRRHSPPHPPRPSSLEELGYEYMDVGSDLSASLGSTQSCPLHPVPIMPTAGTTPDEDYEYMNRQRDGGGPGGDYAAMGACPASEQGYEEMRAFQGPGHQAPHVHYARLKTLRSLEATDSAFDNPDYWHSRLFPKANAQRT

In the case of `NC(=O)c1cccc2cn(-c3ccc([C@@H]4CCCNC4)cc3)nc12` [Niraparib], the percent of control binding at 10 µM was determined as 90% in assay [1] (setting [8]); 100% in assay [2] (setting [8]); 83% in assay [3] (setting [8]); 100% in assay [4] (setting [8]); 100% in assay [5] (setting [8]); 98% in assay [6] (setting [8]). Further, the percent of control binding at 10 µM in assay [7] (setting [8]) is 92%.

Take `O=C(c1cc(Cc2n[nH]c(=O)c3ccccc23)ccc1F)N1CCN(C(=O)C2CC2)CC1` [Olaparib]: the percent of control binding at 10 µM in assay [1] (setting [9]) was 99%; in assay [2] (setting [9]), 83%; in assay [3] (setting [9]), 97%; in assay [4] (setting [9]), 100%; in assay [5] (setting [9]), 89%; in assay [6] (setting [9]), 94%. In addition, in assay [7] (setting [9]), the percent of control binding at 10 µM was determined as 100%.

On to `CNCc1ccc(-c2[nH]c3cc(F)cc4c3c2CCNC4=O)cc1` [Rucaparib], for which the percent of control binding at 10 µM in assay [1] (setting [10]) was 100%; in assay [2] (setting [10]) it was 74%; in assay [3] (setting [10]) it was 79%; in assay [4] (setting [10]), 100%; in assay [5] (setting [10]) it was 88%; in assay [6] (setting [10]), 91%. Moreover, the percent of control binding at 10 µM in assay [7] (setting [10]) was determined as 92%.

On to `Cn1ncnc1[C@H]1c2n[nH]c(=O)c3cc(F)cc(c23)N[C@@H]1c1ccc(F)cc1` [Talazoparib], for which the percent of control binding at 10 µM was 87% in assay [1] (setting [11]); 100% in assay [2] (setting [11]); 94% in assay [3] (setting [11]); 99% in assay [4] (setting [11]); 62% in assay [5] (setting [11]); 100% in assay [6] (setting [11]). Moreover, the percent of control binding at 10 µM in assay [7] (setting [11]) came to 100%.
